Measured values: US20230098254A1, “SCUTELLARIAE RADIX COMPOUNDS AND USE THEREOF FOR INHIBITING OXIDATIVE PHOSPHORYLATION PATHWAY OF MITOCHONDRIA” (priority 2020, published 2023)
pIC50: −log10 of the molar value. Read-outs that look alike come from different tables or passages of the source.

Experiments:
[1] = test system: oxidative phosphorylation pathway of mitochondria; test: Cellular oxygen consumption (OCR), XFe metabolic analysis system; assay type: cell-based; conditions: NCI-H82 cell; 73.2 μM; within half an hour; FIG. 1
Procedure: The oxygen required by cell was mainly consumed in the mitochondria respiratory chain, so the measurement of cellular oxygen consumption (OCR, oxygen consumption rate) could directly reflect the activity of the oxidative phosphorylation pathway of mitochondria. In this experiment, the XFe metabolic analysis system was used to measure the oxygen consumption of NCI-H82 cell in the presence or absence of Compound SJ2858 (baicalein) and Compound SJ2775 (baicalin).
Rotenone (abbreviated as RO, 0.5 μM) is a known inhibitor of mitochondria oxidative phosphorylation pathway complex I, Antimycin A (abbreviated as AA, 0.5 μM) is a known inhibitor of mitochondria oxidative phosphorylation pathway complex III. Compound SJ2858, 73.2 μM; Compound SJ2775, 118.2 μM.

Daoy cell = test: Cell viability, Promega CellTiter-Glo, Daoy cell; assay type: cell-based, human; conditions: Homo sapiens, Daoy, read-out: IC50 of cell viability inhibition
Procedure: Cell viability was detected by using the Promega CellTiter-Glo kit, the kit reflected cell viability by directly measuring intracellular ATP content. […] Daoy cell and NCI-H82 cell were cultured in DMEM containing 10% FBS (plus p/s).

Gp2D = test: Cell viability CellTiter-Glo, Gp2D; assay type: cell-based; conditions: intestinal cancer
Procedure: (§1) Cell viability was measured by using the Promega CellTiter-Glo kit, the kit reflected cell viability by directly measuring intracellular ATP content. Different cancer cells were cultured in culture medium, and the 50% inhibitory concentration IC50 of the compound SJ2858 was measured by Promega CellTiter-Glo kit. The name source and culture condition of each tumor cell line were as follows:
Cell line Gp2D (ECACC, No. 95090714) was cultured in DMEM medium containing 10% fetal bovine serum (+P/S);

A-375 = test: Cell viability CellTiter-Glo, A-375; assay type: cell-based; conditions: Homo sapiens; A-375, melanoma
Procedure: as §1
Cell line A-375 (ATCC, No. CRL-1619) was cultured in DMEM medium containing 10% fetal bovine serum (+P/S);

NCI-H1048 = test: Cell viability CellTiter-Glo, NCI-H1048; assay type: cell-based; conditions: Homo sapiens; NCI-H1048, lung cancer
Procedure: as §1
Cell line NCI-H1048 (ATCC, No. CRL-5853) was cultured in HITES medium containing 5% fetal bovine serum (+P/S);

ATN-1 = test: Cell viability CellTiter-Glo, ATN-1; assay type: cell-based; conditions: Homo sapiens; ATN-1, leukemia
Procedure: as §1
Cell line ATN-1 (RIKEN, No. RBRC-RCB1440) was cultured in RPMI1640 medium containing 10% fetal bovine serum and 0.1 mM NEAA (+P/S);

G-401 = test: Cell viability CellTiter-Glo, G-401; assay type: cell-based; conditions: Homo sapiens; G-401, kidney cancer
Procedure: as §1
Cell line G-401 (ATCC, No. CRL-1441) was cultured in McCoy's 5a medium containing 10% fetal bovine serum (+P/S);

HCC1806 = test: Cell viability CellTiter-Glo, HCC1806; assay type: cell-based; conditions: Homo sapiens; HCC1806, breast cancer
Procedure: as §1
Cell line HCC1806 (ATCC, No. CRL-2335) was cultured in RPMI1640 medium containing 10% fetal bovine serum (+P/S);

OCI-LY-19 = test: Cell viability CellTiter-Glo, OCI-LY-19; assay type: cell-based; conditions: Homo sapiens, OCI-LY19; OCI-LY-19, lymphoma
Procedure: as §1
Cell line OCI-LY-19 (DSMZ, code ACC-528) was cultured in 80-90% alpha-MEM medium containing 10-20% h.i. FBS (+P/S);

SU-DHL-2 = test: Cell viability CellTiter-Glo, SU-DHL-2; assay type: cell-based; conditions: Homo sapiens; SU-DHL-2, lymphoma
Procedure: as §1
Cell line SU-DHL-2 (ATCC, No. CRL-2956) was cultured in RPMI1640 medium containing 10% fetal bovine serum (+P/S);

CCRF-CEM = test: Cell viability CellTiter-Glo, CCRF-CEM; assay type: cell-based; conditions: Homo sapiens, leukemia
Procedure: as §1
Cell line CCRF-CEM (ATCC, No. CCL-119) was cultured in RPMI1640 medium containing 10% fetal bovine serum (+P/S);

OCI-AML-3 = test: Cell viability CellTiter-Glo, OCI-AML-3; assay type: cell-based; conditions: Homo sapiens; OCI-AML-3, leukemia
Procedure: as §1
Cell line OCI-AML-3 (DSMZ, No. ACC-582) was cultured in RPMI1640 medium containing 20% fetal bovine serum (+P/S);

OCI-AML-4 = test: Cell viability CellTiter-Glo, OCI-AML-4; assay type: cell-based; conditions: OCI-AML-4, leukemia
Procedure: as §1
Cell line OCI-AML-4 (DSMZ, No. ACC-729) was cultured in alpha-MEM medium containing 20% fetal bovine serum and 20% volume fraction of 5637 cell line adjusted medium (+P/S);

CHL-1 = test: Cell viability CellTiter-Glo, CHL-1; assay type: cell-based; conditions: Homo sapiens; CHL-1, melanoma
Procedure: as §1
Cell line CHL-1 (ATCC, No. CRL-9446) was cultured in DMEM medium containing 10% fetal bovine serum (+P/S);

NCI-H1155 = test: Cell viability CellTiter-Glo, NCI-H1155; assay type: cell-based; conditions: Homo sapiens; NCI-H1155, lung cancer
Procedure: as §1
Cell line NCI-H1155 (ATCC, No. CRL-5818) was cultured in serum-free ACL-4 medium (+P/S);

LS 180 = test: Cell viability CellTiter-Glo, LS 180; assay type: cell-based; conditions: Homo sapiens, LS180; LS 180, intestinal cancer
Procedure: as §1, with “follows: […]” for “follows:”

GB-1 = test: Cell viability CellTiter-Glo, GB-1; assay type: cell-based; conditions: Homo sapiens; GB-1, brain cancer
Procedure: as §1
Cell line GB-1 (JCRB, No. IFO50489) was cultured in DMEM medium containing 10% fetal bovine serum (+P/S);

WSU-DLCL2 = test: Cell viability CellTiter-Glo, WSU-DLCL2; assay type: cell-based; conditions: Homo sapiens, WSUDLCL2; WSU-DLCL2, lymphoma
Procedure: as §1
Cell line WSU-DLCL2 (DSMZ, No. ACC-575) was cultured in RPMI1640 medium containing 10% fetal bovine serum (+P/S);

C3A = test: Cell viability CellTiter-Glo, C3A; assay type: cell-based; conditions: Homo sapiens, liver cancer
Procedure: as §1
Cell line C3A (ATCC, No. CRL-10741) was cultured in EMEM medium containing 10% fetal bovine serum (+P/S);

## O=c1cc(-c2ccccc2)oc2cc(O)c(O)c(O)c12 [Compound SJ2858, baicalein]
[1]
  Inhibition of oxygen consumption (in words): significantly inhibit
Daoy cell; Daoy cell with CSA (1.5 μM mPTP inhibitor)
  pIC50: 4.88
Daoy cell; Daoy cell without CSA (active mPTP)
  pIC50: 4.45
Gp2D
  pIC50: 4.83
A-375
  pIC50: 4.97
NCI-H1048
  pIC50: 4.82
ATN-1
  pIC50: 4.60
G-401
  pIC50: 4.91
HCC1806
  pIC50: 4.59
OCI-LY-19
  pIC50: 4.28
SU-DHL-2
  pIC50: 5.21
CCRF-CEM
  pIC50: 4.83
OCI-AML-3
  pIC50: 4.21
OCI-AML-4
  pIC50: 4.61
CHL-1
  pIC50: 5.02
NCI-H1155
  pIC50: 4.71
LS 180
  pIC50: 4.76
GB-1
  pIC50: 4.91
WSU-DLCL2
  pIC50: 4.67
C3A
  pIC50: 4.57
